# Source: article PMC6862662, “In Vitro Evaluation and Docking Studies of 5-oxo-5H-furo[3,2-g]chromene-6-carbaldehyde Derivatives as Potential Anti-Alzheimer’s Agents” (International Journal of Molecular Sciences, 2019)
# Legend:
# AChE [1] = target: T1, AChE (Homo sapiens, UniProt P22303); assay: biochemical
# T1 construct: purchased BL, purchased through BIOCOM Africa (Pty) Ltd. 768104
# BChE [2] = target: T2, BChE (Homo sapiens, UniProt P06276); assay: biochemical
# T2 construct: purchased cloud-clone corp., purchased through BIOCOM Africa (Pty) Ltd. RPC348Hu0 2_100
# Experimental: The mixtures were incubated for 15 min at RT. The reaction was initiated by adding of 10 µL of mixture solution of 5 mM 5,50-dithio-bis-nitrobenzoic acid (DTNB) in 50 mM tris buffer (pH 7.7) and 10 µL acetylthiocholine (ASCh; 5 mM) in 50 mM tris buffer, pH 7.7 into the wells containing the mixtures. The hydrolysis of ASCh was determined by monitoring the formation of the yellow 5-thio-2-nitrobenzoate anion resulting from reaction of DTNB with thiocholines (SCh).
# The IC50 values were determined graphically from inhibition curves (inhibitor concentration and absorbance) using the graph pad prism.
# human recombinant BACE-1 = target: T3, human recombinant BACE-1 (Homo sapiens, UniProt P56817); assay: β-secretase FRET inhibitory assay; assay type: biochemical; conditions: triplicate
# T3 construct: purchased Pan Vera; host or cells: baculovirus-expressed
# [3] = test system: lipoxygenase-15 (Soybean LOX-15); assay type: biochemical; conditions: ratio not defined in print; matches IC50 LOX-15/LOX-5
# Experimental: Stock solutions (200 µM) of tested samples were prepared in DMSO. The stock solutions were further diluted with 50 mM Tris buffer of pH 7.7 to obtain concentrations of 0.01, 0.1, 1, 10 and 100 µM. The cells of a 96-well plate where distributed as follows: two wells taken as blanks (100 µL 50 mM Tris buffer pH 7.7), two wells taken as positive controls (90 µL of 15-LO Standard and 10 µL of DMSO) and two wells as 100% initial activity wells (90 µL lipoxygenase enzyme solution and 10 µL tris buffer). […] The 96-well plate was then incubated for 5 min at room temperature. The reaction was initiated by the addition of 10 µL of the substrate (arachidonic acid) to each well containing the mixtures. After shaking the 96-well plate on a shaker for 5 min, 100 µL of the chromogen (solution of equal volume developing reagent 1 and 2) was added to each well to stop enzyme catalysis and develop the reaction. The plate was again shaken for 5 min and the absorbance read at 490 nm in a Varioskan flash microplate spectrophotometer reader. The inhibitory concentration was expressed as a percentage using the formula below. […]
# ASample is the absorbance of the reaction mixture of the test sample, ABlank sample is the absorbance of the reaction mixture containing all reagents except enzyme and AInitial activity is the absorbance of 100% initial activity.
# [4] = target: T4, human lipoxygenase-5 (LOX-5) (Homo sapiens, UniProt P09917); assay: Human LOX-5 inhibitory assay; assay type: biochemical; conditions: human LOX-5, duplicate
# T4 construct: purchased BioVision K980
# T4 sequence (P09917 1-674): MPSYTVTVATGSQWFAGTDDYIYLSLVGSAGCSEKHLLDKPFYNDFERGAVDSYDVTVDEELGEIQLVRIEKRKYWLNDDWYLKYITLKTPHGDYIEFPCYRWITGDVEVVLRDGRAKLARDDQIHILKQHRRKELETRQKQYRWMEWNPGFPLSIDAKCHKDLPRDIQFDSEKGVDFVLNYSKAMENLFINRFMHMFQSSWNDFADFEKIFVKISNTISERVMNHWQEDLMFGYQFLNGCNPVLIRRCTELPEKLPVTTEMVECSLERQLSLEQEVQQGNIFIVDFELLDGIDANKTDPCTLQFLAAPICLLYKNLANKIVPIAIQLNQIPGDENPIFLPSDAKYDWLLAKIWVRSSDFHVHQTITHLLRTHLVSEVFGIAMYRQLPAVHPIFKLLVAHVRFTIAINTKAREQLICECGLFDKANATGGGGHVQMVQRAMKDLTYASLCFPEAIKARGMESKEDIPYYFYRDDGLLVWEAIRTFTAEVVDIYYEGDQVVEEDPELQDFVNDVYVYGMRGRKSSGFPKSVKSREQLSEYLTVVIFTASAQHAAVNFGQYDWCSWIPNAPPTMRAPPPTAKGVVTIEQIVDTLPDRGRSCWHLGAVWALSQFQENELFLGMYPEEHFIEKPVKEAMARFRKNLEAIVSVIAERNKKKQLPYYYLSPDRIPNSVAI
# Experimental: The reagents were prepared according to the Lipoxygenase inhibitor screening kit (Item No. K980; BioVision, Milpitas Blvd, Milpitas, CA, USA) standard protocol. […] The cells of a 96-well plate where distributed as follows: two wells were taken as blanks (100 µL of assay buffer), two wells enzyme controls (90 µL of 15-LO Standard and 10 µL of tris buffer), two wells as 100% initial activity wells (90 µL and 10 µL DMSO) and three wells as enzyme control (40 µL). […] Forty µL of the reaction mixture (prepared by mixing thoroughly 36 µL of LOX assay buffer, 2 µL of LOX probe and 2 µL of 5-LOX enzyme) were added to each well and incubated for 10 min. at RT. The DMSO concentration in each reaction well was 1% to prevent enzyme structural deformation and therefore, reduced activity. […] The percentage inhibition (%) was calculated using the equation below. (4) % Inhibition=Control−Test/Control×100.
# [5] = DPPH radical scavenging activity assay; conditions: triplicate, preliminary
# Experimental: DPPH radical scavenging activity of compounds 2b, 2f, 3b, 3d and 3f was evaluated following the literature method. Ascorbic acid (Sigma Aldrich, Saint Louis, Missouri, USA) was used as a positive control. The test compounds and controls at various concentrations ranging from (0 µM to 40 µM) in DMSO were mixed with a solution of DPPH (0.20 mM) in methanol. The mixtures were incubated in the dark for 45 min and the absorbances were recorded at 512 nm using Varioskan flash microplate spectrophotometer reader. All tests and analyses were run in triplicate and averaged. The inhibition was calculated in terms of percentage using the formula below:(5) DPPH radical scavenged (%)=AbC−AbS/AbC×100, where AbC is absorbance of control and AbS the absorbance of the test sample.
# AChE [6] = target: T1, AChE; assay: Kinetic studies against AChE (Lineweaver–Burk and Dixon plots); assay type: biochemical
# Experimental: (§1) Compounds 2f, 2b, 2f, 3b, 3d and 3f were selected for the kinetic studies with substrate concentrations 0.1, 0.5, 2. 5 and 5 µM for ChEs following procedures described in our previous investigation. The Lineweaver–Burk plots (plots of the inverse of velocity (1/v) against the inverse of the substrate concentration (1/[S])) were used to ascertain the mode of inhibition of these compounds.
# BChE [7] = target: T2, BChE; assay: Kinetic studies against BChE (Lineweaver–Burk and Dixon plots); assay type: biochemical
# Experimental: as §1
# β-secretase (BACE-1) = target: T5, β-secretase (BACE-1) (Homo sapiens, UniProt P56817); assay: Kinetic studies against β-secretase (Lineweaver–Burk and Dixon plots); assay type: biochemical
# T5 construct: purchased Pan Vera; host or cells: baculovirus-expressed
# Experimental: Compound 2f was selected for the kinetic studies with substrate concentrations 150, 300 and 450 nM for β-secretase following procedure described in our previous investigation. The Lineweaver–Burk plot (plot of the inverse of velocity (1/v) against the inverse of the substrate concentration (1/[S])) was used to ascertain the mode of inhibition of this compound.
# [8] = test system: breast cancer cell line MCF-7; assay: MTT cytotoxicity assay, MCF-7; assay type: cell-based; conditions: Homo sapiens, MCF7; MTT assay, 24 h, preliminary; read-out: IC50 against MCF-7 cancer cell line
# Experimental: (§2) Briefly, the cells were seeded in 96-well plate at a density of 20 × 10^3 cells per well and then incubated at 37 °C in 5% CO2 to allow cell attachment. […] An equal volume of medium was used as the control treatment. After treatment for 24 h, 10 μL MTT (5 mg/mL) was added to each well and the plate was further incubated for 4 h later. The supernatant was removed and 100 μL of DMSO was added to each well to dissolve the resulting formazan crystals. The absorbance was read at 570 nm using the Varioskan flash microplate spectrophotometer reader. The percentages of cell viability were used to determine the IC50 values.
# Hek293-T cells = assay: MTT cytotoxicity assay, Hek293-T; assay type: cell-based; conditions: 24 h, till 50 μM
# Experimental: as §2
# [9] = Lineweaver–Burk and Dixon plots
# T2 sequence (P06276 29-602): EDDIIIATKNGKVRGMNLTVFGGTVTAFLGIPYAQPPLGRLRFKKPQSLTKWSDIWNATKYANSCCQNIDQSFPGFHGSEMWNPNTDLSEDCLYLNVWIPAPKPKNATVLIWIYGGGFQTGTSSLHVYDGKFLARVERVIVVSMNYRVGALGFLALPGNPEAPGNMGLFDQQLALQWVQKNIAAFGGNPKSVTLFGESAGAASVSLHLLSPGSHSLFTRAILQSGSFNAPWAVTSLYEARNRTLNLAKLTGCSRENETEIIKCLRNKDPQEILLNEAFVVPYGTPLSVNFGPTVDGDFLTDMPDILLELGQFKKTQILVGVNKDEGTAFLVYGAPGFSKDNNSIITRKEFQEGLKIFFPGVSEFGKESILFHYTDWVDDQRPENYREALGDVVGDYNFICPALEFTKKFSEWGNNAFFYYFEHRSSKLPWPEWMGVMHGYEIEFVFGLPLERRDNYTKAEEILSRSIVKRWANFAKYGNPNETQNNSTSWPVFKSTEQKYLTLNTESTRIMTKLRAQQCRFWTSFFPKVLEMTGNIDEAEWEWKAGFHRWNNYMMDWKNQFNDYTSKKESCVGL
# T1 sequence (P22303 32-614): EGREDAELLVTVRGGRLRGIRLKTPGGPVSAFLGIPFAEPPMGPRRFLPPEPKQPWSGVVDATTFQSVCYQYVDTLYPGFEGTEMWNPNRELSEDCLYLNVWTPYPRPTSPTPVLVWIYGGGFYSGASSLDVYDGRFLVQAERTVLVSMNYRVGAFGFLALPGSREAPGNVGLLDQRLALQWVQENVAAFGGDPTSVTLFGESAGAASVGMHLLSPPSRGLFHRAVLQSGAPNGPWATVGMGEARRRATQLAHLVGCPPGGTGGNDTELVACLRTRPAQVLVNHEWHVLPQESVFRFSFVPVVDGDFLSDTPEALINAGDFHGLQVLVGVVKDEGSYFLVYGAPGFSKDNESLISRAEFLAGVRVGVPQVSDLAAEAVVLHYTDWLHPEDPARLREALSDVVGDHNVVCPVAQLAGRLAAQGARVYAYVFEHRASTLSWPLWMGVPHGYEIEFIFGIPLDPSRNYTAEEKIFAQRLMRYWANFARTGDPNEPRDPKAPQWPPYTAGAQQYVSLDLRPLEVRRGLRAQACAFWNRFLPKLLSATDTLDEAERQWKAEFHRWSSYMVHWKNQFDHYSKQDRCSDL
# T5 sequence (P56817 46-501): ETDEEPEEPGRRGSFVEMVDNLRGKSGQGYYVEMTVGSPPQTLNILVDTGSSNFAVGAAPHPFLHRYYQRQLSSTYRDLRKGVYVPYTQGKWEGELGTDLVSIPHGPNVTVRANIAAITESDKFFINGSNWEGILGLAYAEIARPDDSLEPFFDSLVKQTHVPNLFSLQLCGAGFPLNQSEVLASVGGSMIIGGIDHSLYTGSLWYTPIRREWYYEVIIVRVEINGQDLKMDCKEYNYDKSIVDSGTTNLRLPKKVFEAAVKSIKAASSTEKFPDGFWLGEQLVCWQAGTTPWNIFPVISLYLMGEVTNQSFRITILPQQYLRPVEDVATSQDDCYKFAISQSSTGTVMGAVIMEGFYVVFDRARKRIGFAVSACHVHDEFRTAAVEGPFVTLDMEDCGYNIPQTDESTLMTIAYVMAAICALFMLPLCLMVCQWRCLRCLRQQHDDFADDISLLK
# T3 sequence (P56817 46-501): as above
compound,measurement,setting,value
"COc1ccc(-c2cc3cc4c(=O)c(C=O)coc4cc3o2)cc1 [Compound 2f, 2-(4-Methoxyphenyl)-5-oxo-5H-furo[3,2-g]chromene-6-carbaldehyde]",IC50,AChE [1],9.4 ± 0.01 µM
same,SI BChE/AChE,AChE [1]; Selectivity index IC50 (BChE)/IC50 (AChE),0.54
same,IC50,"BChE [2]; Ellman's method, triplicate",5.1 ± 0.02 µM
same,SI AChE/BChE,BChE [2]; Selectivity index IC50 (AChE)/IC50 (BChE),1.85
same,IC50,human recombinant BACE-1,15.4 ± 0.02 µM
same,SI (LOX-15 vs LOX-5),[3],0.63
same,IC50,[4],15.3 ± 0.01 µM
same,IC50,[5],18.1 ± 0.03 µM
same,Ki,AChE [6]; Dixon plots,1.34 ± 0.02 µM
same,mode of inhibition against AChE,AChE [6]; [9],competitive
same,Vmax against AChE,"AChE [6]; Lineweaver–Burk plots, increasing inhibitor concentration",0.03 ± 0.018
same,Ki,BChE [7]; Dixon plots,3.9 ± 0.01 µM
same,mode of inhibition against BChE,BChE [7]; [9],non-competitive
same,Ki,β-secretase (BACE-1); Dixon plot,1.49 ± 0.01 µM
same,mode of inhibition against β-secretase,β-secretase (BACE-1); [9],mixed mode of inhibition
same,IC50,[8],8.65 ± 0.03 µM
same,toxicity in Hek293-T cells,Hek293-T cells,did not show any major toxicity
